Entries after “also recorded” stand apart in the source; their conditions may differ.
Columns and labels:
PSC27 [1] = assay: Population doubling (PD) test of PSC27; assay type: cell-based, human
Experimental: The cells were damaged by BLEO at passage 10 (p10), and then SAE was added to the medium at day 8. The effect SAE on cell proliferation potential is determined by comparative analysis of the population doubling (PD) of CTRL group, BLEO group, SAE group and BLEO/SAE group. ^, P>0.05; ***P<0.001.

SASP = assay: qRT-PCR of typical SASP molecules in BLEO-induced senescent PSC27 cells at different SAE concentrations; assay type: cell-based, human
Experimental: All data are normalized results compared to the CTRL group. *P<0.05, **P<0.01, ***P<0.001.
(§1) To cause cell damage, 50 μg/mL bleomycin (bleomycin, BLEO) was added to the culture medium when PSC27 cells grew to 80% (abbreviated as PSC27-CTRL). After 12 hours of drug treatment, the cells were simply washed 3 times with PBS, left in the culture medium for 7-10 days, and then the subsequent experiments were performed.
Total RNA of cells in the growth phase or stasis phase was extracted with Trizol reagent. 1 mL Trizol was added to each T25 culture flask. The cell layer was scraped off with a cell scraper, transferred into a centrifuge tube and mixed well until not viscous. […]
Samples were loaded according to the above standard, and the reaction conditions were: 95° C. pre-denaturation for 15 seconds, then 95° C. for 5 seconds, 60° C. for 31 seconds, 40 cycles; melting curve conditions were 95° C. for 15 seconds, 60° C. for 30 seconds, 95° C. for 15 seconds. […] After the reaction was completed, the amplification of each gene was checked by software analysis, the corresponding threshold cycle number was derived, and the relative expression of each gene was calculated using the 2-ΔΔCt method. The peak and waveform of the melting curve was analyzed to determine whether the obtained amplification product was a specific single target fragment.

SASP factors [2] = assay: RNA-seq and GSEA expression profile of BLEO-induced senescent PSC27 cells; assay type: cell-based, human
Experimental: as §1
Whole-transcriptome sequencing was performed on the primary human prostate stromal cell line PSC27 under different treatment conditions. Total RNA samples were obtained from stromal cells. Their integrity was verified by Bioanalyzer 2100 (Agilent), RNA was sequenced by Illumina HiSeq X10, and gene expression levels were quantified by software package rsem (https://deweylab. github.io/rsem/). Briefly, rRNA was depleted from RNA samples with the RiboMinus Eukaryote Kit (Qiagen, Valencia, CA, USA); and according to the manufacturer's instructions, TruSeq Stranded Total RNA Preparation Kits (Illumina, San Diego, CA, USA) was used to construct a strand-specific RNA-seq library before deep sequencing.
Paired-end transcriptomic reads were mapped to a reference genome (GRCh38/hg38), and reference-annotation was performed from Gencode v27 using the Bowtie tool. Duplicate reads were identified using the picard Tools (1.98) script to mark duplicates (https://github. com/broadinstitute/picard), and only non-duplicate reads were retained. Reference splice junctions were provided by reference transcriptome (Ensembl Build 73). FPKM values were calculated with Cufflinks, and Cufflinks maximum likelihood estimation function was used to call differential gene expression. […]
Based on the data obtained from the preliminary analysis of RNA-seq, after analyzing and comparing each differentially expressed significant gene, the genes were sorted using the “wald statistics” obtained from DESeq2. […] DESeq2 independent filtering was based on the average of normalized read counts to select genes with very low expression levels. […]

SASP factors [3] = assay: LCM and qRT-PCR of SASP factors in mouse lesions; assay type: in vivo; details: MIT/SAE vs MIT
Experimental: The stromal cells and cancer cells were specifically separated by LCM technology, total RNA was prepared and used for SASP expression detection. ^, P>0.05; *, P<0.05; **, P<0.01.
In a preclinical treatment trial, subcutaneously transplanted mice were fed with a standard experimental diet, after 2 weeks chemotherapy drugs mitoxantrone (MIT, dose: 0.2 mg/kg) and/or SAE (500 μl, dose: 10 mg/kg) via intraperitoneal administration. The time points were: the former was administrated on the first day of the 3rd, 5th and 7th weeks, and the latter was administrated on the first day of the 5th and 7th weeks. A total of 3 cycles of MIT administration were carried out throughout the course of treatment, and each cycle lasted for 2 weeks. After the course of treatment, mouse tumors were harvested for volume measurement and histological analysis. Each mouse cumulatively received 0.6 mg/kg body weight of MIT and 30 mg/kg body weight of SAE. In order to cause systemic expression of SASP factors induced by chemotherapy, MIT was administered to mice through intravenous infusion according to the above steps and sequence, but the dose was reduced to 0.1 mg/kg body weight/each time (the cumulative dose of MIT received in the whole course of treatment was 0.3 mg/kg body weight) to reduce drug-related toxicity. […]

PSC27 [4] = assay: SA-β-Gal staining of PSC27 cells (bleomycin-induced senescence, increasing SAE concentration); assay type: cell-based, human
Experimental: The P value of positive proportion of cells in these experimental groups for SAE at the concentrations of 100 μM, 200 μM, 400 μM, 800 μM, 1600 μM, 2000 μM and 3000 μM are statistically significant compared with the data at 0 μM.
as §1
Senescence-associated B-galactosidase (SA-β-Gal) staining was performed following a previously reported procedure (Debacq-Chainiaux, et. al., 2009). Briefly, cells in culture dishes were washed with PBS and fixed at room temperature. Cells were fixed in 2% formaldehyde and 0.2% glutaraldehyde for 3 minutes. SA-β-Gal was used for staining with freshly prepared staining solution overnight at 37° C. Images were taken on the next day and the percentage of positive cells per unit area was calculated.

O=C(/C=C/c1ccc(O)c(O)c1/C(=C\c1ccc(O)c(O)c1)C(=O)O[C@H](Cc1ccc(O)c(O)c1)C(=O)O)O[C@H](Cc1ccc(O)c(O)c1)C(=O)O [SAE, salvianolic acid E]
PD in proliferating cells (PSC27 [1]; SAE alone): does not affect PD | population doubling (PD) ability of stromal cells after genotoxic treatment combined with SAE (PSC27 [1]; combination with genotoxic drug (BLEO) vs genotoxic drug alone): significant increase; also recorded: significantly increased | inhibition of SASP development at lower or higher concentrations (SASP; compared with 50 μM): less effective | working concentration that inhibited SASP development with the greatest efficiency (SASP; concentration gradient, senescent PSC27): 50 µM | expression of SASP factors in senescent cells after SAE treatment (SASP factors [2]; BLEO-induced senescent PSC27): universally reduced; also recorded: generally decreased | molecular signatures characterizing SASP expression or NF-κB activation (GSEA) (SASP factors [2]; BLEO-induced senescent PSC27 after SAE): significant repression | expression profile of senescent cells (SASP factors [2]; RNA-seq, BLEO-induced senescent PSC27): significantly altered | change of SASP factor expression when SAE was administered (SASP factors [3]): largely reversed | SAE concentration at which senescent cells begin to be eliminated (PSC27 [4]; SA-β-Gal staining): 200 µM | concentration at which the killing effect on senescent cells reaches a threshold (PSC27 [4]; SA-β-Gal staining): 2000 µM | killing effect on senescent cells (PSC27 [4]; SAE increased to 3000 μM): not further enhanced

From patent US20250295619A1, “Use of Salvianolic Acid E in the Preparation of Drugs Targeting Senescent Cells, Inhibiting Tumors or Extending Lifespan” (Shanghai Institute of Nutrition and Health, Chinese Academy …, priority 2024, published 2025)
